Positions of bridges follow the written chain, without caps; N, C: chain ends. Non-standard residues stand in square brackets, D forms with d. Residues, ends and D or L forms follow the SMILES beside them. Chains are numbered I, II in the order given. No end group written: not given here. *: point of attachment. Glutathionyl = N[C@@H](CCC(=O)N[C@@H](CS*)C(=O)NCC(=O)O)C(=O)O; Hyp = O=C(O)[C@@H]1C[C@@H](O)CN1
Tests used:
rNav 1.7 = rNav 1.7 (Rattus norvegicus, UniProt O08562); experiment: cell-based; type: cell-based
hNaV1.7 = hNaV1.7 (Homo sapiens, UniProt Q15858); type: cell-based
[1] = read-out: rNav 1.7 % block peptide concentration

rNav 1.7, sequence (O08562 whole entry, looked up): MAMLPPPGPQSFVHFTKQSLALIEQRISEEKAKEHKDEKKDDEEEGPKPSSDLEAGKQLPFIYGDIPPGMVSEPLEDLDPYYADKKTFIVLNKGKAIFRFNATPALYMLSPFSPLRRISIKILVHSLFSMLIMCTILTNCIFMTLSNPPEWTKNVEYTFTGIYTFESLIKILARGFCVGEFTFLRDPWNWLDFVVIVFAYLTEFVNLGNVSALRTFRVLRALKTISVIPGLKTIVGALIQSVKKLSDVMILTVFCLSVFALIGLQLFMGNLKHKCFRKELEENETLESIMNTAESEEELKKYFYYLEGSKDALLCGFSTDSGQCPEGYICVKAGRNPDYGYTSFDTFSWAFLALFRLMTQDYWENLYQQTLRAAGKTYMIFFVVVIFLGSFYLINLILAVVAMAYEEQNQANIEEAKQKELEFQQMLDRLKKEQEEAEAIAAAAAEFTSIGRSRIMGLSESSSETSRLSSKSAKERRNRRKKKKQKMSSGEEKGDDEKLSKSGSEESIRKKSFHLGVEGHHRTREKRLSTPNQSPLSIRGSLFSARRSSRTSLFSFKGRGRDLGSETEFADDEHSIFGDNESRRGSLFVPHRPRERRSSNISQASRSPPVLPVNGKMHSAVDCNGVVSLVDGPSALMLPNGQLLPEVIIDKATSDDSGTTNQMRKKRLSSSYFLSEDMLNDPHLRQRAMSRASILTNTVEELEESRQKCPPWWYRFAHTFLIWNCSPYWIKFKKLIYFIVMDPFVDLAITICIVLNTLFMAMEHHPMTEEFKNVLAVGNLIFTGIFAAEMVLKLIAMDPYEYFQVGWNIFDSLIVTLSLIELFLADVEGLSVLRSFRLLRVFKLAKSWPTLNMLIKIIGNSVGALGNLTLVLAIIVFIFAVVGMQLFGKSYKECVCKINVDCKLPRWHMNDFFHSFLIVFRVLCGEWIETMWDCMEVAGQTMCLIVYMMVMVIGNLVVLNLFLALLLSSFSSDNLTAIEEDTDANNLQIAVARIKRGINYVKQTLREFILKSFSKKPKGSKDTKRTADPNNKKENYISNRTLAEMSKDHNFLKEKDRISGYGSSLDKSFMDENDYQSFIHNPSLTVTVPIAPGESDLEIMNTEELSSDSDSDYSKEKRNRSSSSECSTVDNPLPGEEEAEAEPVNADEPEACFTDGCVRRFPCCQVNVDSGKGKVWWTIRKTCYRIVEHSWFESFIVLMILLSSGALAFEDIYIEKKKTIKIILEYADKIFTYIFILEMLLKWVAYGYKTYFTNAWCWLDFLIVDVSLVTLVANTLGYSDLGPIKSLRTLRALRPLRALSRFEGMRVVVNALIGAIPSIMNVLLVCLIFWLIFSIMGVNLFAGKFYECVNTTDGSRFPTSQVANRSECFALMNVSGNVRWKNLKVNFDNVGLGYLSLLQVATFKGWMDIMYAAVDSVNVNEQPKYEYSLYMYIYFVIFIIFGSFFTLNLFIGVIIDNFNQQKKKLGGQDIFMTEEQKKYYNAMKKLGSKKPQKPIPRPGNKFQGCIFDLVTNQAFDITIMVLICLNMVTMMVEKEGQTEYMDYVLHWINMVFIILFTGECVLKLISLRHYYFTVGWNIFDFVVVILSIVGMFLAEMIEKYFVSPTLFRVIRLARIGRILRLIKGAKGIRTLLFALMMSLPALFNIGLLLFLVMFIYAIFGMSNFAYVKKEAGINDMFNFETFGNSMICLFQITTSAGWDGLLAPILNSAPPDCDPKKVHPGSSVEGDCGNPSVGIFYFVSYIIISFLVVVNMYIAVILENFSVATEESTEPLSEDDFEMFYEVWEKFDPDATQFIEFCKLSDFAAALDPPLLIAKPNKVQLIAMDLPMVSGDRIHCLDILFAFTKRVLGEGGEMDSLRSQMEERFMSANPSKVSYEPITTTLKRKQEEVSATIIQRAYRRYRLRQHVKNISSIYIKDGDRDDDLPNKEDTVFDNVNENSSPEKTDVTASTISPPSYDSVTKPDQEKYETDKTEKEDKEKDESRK
hNaV1.7, sequence (Q15858 whole entry, looked up): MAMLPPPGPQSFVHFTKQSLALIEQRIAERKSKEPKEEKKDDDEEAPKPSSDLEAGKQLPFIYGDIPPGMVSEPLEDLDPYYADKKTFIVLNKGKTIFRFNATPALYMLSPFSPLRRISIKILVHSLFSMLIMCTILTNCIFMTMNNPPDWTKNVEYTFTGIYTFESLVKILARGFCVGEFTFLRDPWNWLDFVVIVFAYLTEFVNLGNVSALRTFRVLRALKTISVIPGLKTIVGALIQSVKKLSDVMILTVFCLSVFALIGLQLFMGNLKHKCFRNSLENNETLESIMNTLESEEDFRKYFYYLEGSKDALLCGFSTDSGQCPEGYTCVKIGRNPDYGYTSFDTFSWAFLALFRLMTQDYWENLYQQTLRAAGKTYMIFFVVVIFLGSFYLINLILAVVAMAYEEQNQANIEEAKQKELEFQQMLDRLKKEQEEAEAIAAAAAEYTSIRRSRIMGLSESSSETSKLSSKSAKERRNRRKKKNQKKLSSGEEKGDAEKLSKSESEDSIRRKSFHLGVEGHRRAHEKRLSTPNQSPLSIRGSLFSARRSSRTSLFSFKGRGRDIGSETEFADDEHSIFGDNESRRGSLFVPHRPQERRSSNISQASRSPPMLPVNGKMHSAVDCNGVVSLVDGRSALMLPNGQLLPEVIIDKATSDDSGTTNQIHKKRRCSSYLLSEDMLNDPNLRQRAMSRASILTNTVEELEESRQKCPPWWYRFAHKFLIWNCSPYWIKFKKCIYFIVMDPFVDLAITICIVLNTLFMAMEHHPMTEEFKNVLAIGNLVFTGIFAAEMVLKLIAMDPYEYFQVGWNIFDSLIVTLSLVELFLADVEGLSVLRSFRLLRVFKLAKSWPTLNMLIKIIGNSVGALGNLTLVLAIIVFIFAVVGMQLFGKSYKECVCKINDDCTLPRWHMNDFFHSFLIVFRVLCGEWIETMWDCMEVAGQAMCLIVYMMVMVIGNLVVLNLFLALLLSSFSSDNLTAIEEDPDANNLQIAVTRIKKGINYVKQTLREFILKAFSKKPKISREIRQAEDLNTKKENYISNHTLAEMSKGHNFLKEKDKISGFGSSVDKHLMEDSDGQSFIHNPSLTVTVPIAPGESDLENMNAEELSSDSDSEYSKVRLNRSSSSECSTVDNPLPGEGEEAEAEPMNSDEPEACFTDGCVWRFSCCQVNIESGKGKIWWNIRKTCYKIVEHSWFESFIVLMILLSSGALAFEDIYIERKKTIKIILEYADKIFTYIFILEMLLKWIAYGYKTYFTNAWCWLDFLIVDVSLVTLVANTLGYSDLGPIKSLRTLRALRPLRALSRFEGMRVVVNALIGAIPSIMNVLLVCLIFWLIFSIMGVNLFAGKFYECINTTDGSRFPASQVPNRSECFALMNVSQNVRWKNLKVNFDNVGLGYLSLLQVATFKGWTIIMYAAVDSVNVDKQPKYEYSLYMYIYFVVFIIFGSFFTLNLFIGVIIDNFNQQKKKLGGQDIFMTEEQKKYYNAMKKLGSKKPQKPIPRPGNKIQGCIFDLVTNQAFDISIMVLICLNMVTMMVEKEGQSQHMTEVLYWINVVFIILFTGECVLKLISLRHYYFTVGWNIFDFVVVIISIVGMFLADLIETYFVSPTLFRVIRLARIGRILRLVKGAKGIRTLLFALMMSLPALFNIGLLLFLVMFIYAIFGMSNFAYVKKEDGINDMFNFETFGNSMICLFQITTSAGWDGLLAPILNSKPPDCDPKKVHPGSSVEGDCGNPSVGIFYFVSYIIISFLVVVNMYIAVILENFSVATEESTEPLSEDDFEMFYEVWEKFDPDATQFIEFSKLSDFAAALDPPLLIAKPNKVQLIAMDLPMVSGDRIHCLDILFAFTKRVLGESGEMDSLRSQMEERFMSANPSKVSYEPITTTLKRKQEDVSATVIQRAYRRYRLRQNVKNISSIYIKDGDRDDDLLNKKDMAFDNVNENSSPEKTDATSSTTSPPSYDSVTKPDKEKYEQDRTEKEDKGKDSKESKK

| Molecule | inhibition at 33 µM (rNav 1.7; [1]) [%] | also measured |
| --- | --- | --- |
| CC(C)C[C@@H]1NC(=O)[C@H](CCCCN)NC(=O)CNC(=O)[C@@H]2CSSC[C@@H]3NC(=O)[C@H](Cc4ccccc4)NC(=O)CNC(=O)[C@H](CO)NC(=O)[C@H](CSSC[C@H](NC(=O)[C@H](Cc4c[nH]c5ccccc45)NC(=O)CN)C(=O)NCC(=O)N[C@@H](CC(=O)O)C(=O)N4C[C@H](O)C[C@H]4C(=O)NCC(=O)N[C@@H](C)C(=O)N[C@@H]([C@@H](C)O)C(=O)N2)NC(=O)[C@H](CSSC[C@@H](C(=O)N[C@@H](CCCCN)C(=O)N[C@@H](CC(=O)O)C(=O)N[C@@H](CCCCN)C(=O)N[C@@H](CO)C(=O)N[C@@H](CO)C(=O)N[C@@H](C)C(=O)O)NC(=O)[C@H]([C@@H](C)O)NC(=O)CNC(=O)[C@H]([C@@H](C)O)NC(=O)[C@H](Cc2ccc(O)cc2)NC(=O)[C@H](CSSC[C@H](NC(=O)CC[C@H](N)C(=O)O)C(=O)NCC(=O)O)NC(=O)[C@H](CC(=O)O)NC3=O)NC(=O)[C@H](Cc2ccc(O)cc2)NC(=O)[C@H](CC(C)C)NC(=O)[C@H](CCCNC(=N)N)NC1=O [C.geeo1[K27G]] | 60 |  |
| CC[C@@H]1NC(=O)[C@H](CC(=O)O)NC(=O)[C@@H]2CSSC[C@@H]3NC(=O)[C@H]([C@@H](C)O)NC(=O)[C@H](C)NC(=O)CNC(=O)[C@@H]4C[C@@H](O)CN4C(=O)[C@H](CC(=O)O)NC(=O)CNC(=O)[C@@H](NC(=O)[C@H](Cc4c[nH]c5ccccc45)NC(=O)CN)CSSC[C@H](NC(=O)[C@H](CSSC[C@@H](C(=O)N[C@@H](CCCCN)C(=O)N[C@@H](CC(=O)O)C(=O)N[C@@H](CCCCN)C(=O)N[C@@H](CO)C(=O)N[C@@H](CO)C(=O)N[C@@H](C)C(=O)O)NC(=O)[C@H]([C@@H](C)O)NC(=O)[C@H](CCCCN)NC(=O)[C@H]([C@@H](C)O)NC(=O)[C@H](Cc4ccc(O)cc4)NC1=O)NC(=O)[C@H](Cc1ccc(O)cc1)NC(=O)[C@H](CC(C)C)NC(=O)[C@H](CCCNC(=N)N)NC(=O)[C@H](CC(C)C)NC(=O)[C@H](CCCCN)NC(=O)CNC3=O)C(=O)N[C@@H](CO)C(=O)NCC(=O)N[C@@H](Cc1ccccc1)C(=O)N2 [C.geo1[C24Abu]] | 20 |  |
| CC(=O)NCSC[C@@H]1NC(=O)[C@H](CC(=O)O)NC(=O)[C@@H]2CSSC[C@@H]3NC(=O)[C@H]([C@@H](C)O)NC(=O)[C@H](C)NC(=O)CNC(=O)[C@@H]4C[C@@H](O)CN4C(=O)[C@H](CC(=O)O)NC(=O)CNC(=O)[C@@H](NC(=O)[C@H](Cc4c[nH]c5ccccc45)NC(=O)CN)CSSC[C@H](NC(=O)[C@H](CSSC[C@@H](C(=O)N[C@@H](CCCCN)C(=O)N[C@@H](CC(=O)O)C(=O)N[C@@H](CCCCN)C(=O)N[C@@H](CO)C(=O)N[C@@H](CO)C(=O)N[C@@H](C)C(=O)O)NC(=O)[C@H]([C@@H](C)O)NC(=O)[C@H](CCCCN)NC(=O)[C@H]([C@@H](C)O)NC(=O)[C@H](Cc4ccc(O)cc4)NC1=O)NC(=O)[C@H](Cc1ccc(O)cc1)NC(=O)[C@H](CC(C)C)NC(=O)[C@H](CCCNC(=N)N)NC(=O)[C@H](CC(C)C)NC(=O)[C@H](CCCCN)NC(=O)CNC3=O)C(=O)N[C@@H](CO)C(=O)NCC(=O)N[C@@H](Cc1ccccc1)C(=O)N2 [C.geo1[C24Cys(Acm)]] | 70 |  |
| CC(C)C[C@@H]1NC(=O)[C@H](CCCCN)NC(=O)CNC(=O)[C@@H]2CSSC[C@@H]3NC(=O)[C@H](Cc4ccccc4)NC(=O)CNC(=O)[C@H](CO)NC(=O)[C@H](CSSC[C@H](NC(=O)[C@H](Cc4c[nH]c5ccccc45)NC(=O)CN)C(=O)NCC(=O)N[C@@H](CC(=O)O)C(=O)N4C[C@H](O)C[C@H]4C(=O)NCC(=O)N[C@@H](C)C(=O)N[C@@H]([C@@H](C)O)C(=O)N2)NC(=O)[C@H](CSSC[C@@H](C(=O)N[C@@H](CCCCN)C(=O)N[C@@H](CC(=O)O)C(=O)N[C@@H](CCCCN)C(=O)N[C@@H](CO)C(=O)N[C@@H](CO)C(=O)N[C@@H](C)C(=O)O)NC(=O)[C@H]([C@@H](C)O)NC(=O)[C@H](CCCCN)NC(=O)[C@H]([C@@H](C)O)NC(=O)[C@H](Cc2ccc(O)cc2)NC(=O)[C@H](CCC(=O)O)NC(=O)[C@H](CC(=O)O)NC3=O)NC(=O)[C@H](Cc2ccc(O)cc2)NC(=O)[C@H](CC(C)C)NC(=O)[C@H](CCCNC(=N)N)NC1=O [C.geo1[C24E]] (H-GWCGD[Hyp]GATCGKLRLYCCSGFCDEYTKTCKDKSSA-OH; disulfide 3-18, 10-22, 17-29) | 15 |  |
| CC(C)C[C@@H]1NC(=O)[C@H](CCCCN)NC(=O)CNC(=O)[C@@H]2CSSC[C@@H]3NC(=O)[C@H](Cc4ccccc4)NC(=O)CNC(=O)[C@H](CO)NC(=O)[C@H](CSSC[C@H](NC(=O)[C@H](Cc4c[nH]c5ccccc45)NC(=O)CN)C(=O)NCC(=O)N[C@@H](CC(=O)O)C(=O)N4C[C@H](O)C[C@H]4C(=O)NCC(=O)N[C@@H](C)C(=O)N[C@@H]([C@@H](C)O)C(=O)N2)NC(=O)[C@H](CSSC[C@@H](C(=O)N[C@@H](CCCCN)C(=O)N[C@@H](CC(=O)O)C(=O)N[C@@H](CCCCN)C(=O)N[C@@H](CO)C(=O)N[C@@H](CO)C(=O)N[C@@H](C)C(=O)O)NC(=O)[C@H]([C@@H](C)O)NC(=O)[C@H](CCCCN)NC(=O)[C@H]([C@@H](C)O)NC(=O)[C@H](Cc2ccc(O)cc2)NC(=O)[C@H](CCCCN)NC(=O)[C@H](CC(=O)O)NC3=O)NC(=O)[C@H](Cc2ccc(O)cc2)NC(=O)[C@H](CC(C)C)NC(=O)[C@H](CCCNC(=N)N)NC1=O [C.geo1[C24K]] (H-GWCGD[Hyp]GATCGKLRLYCCSGFCDKYTKTCKDKSSA-OH; disulfide 3-18, 10-22, 17-29) | 20 |  |
| CC(C)C[C@@H]1NC(=O)[C@H](CCCCN)NC(=O)CNC(=O)[C@@H]2CSSC[C@@H]3NC(=O)[C@H](Cc4ccccc4)NC(=O)CNC(=O)[C@H](CO)NC(=O)[C@H](CSSC[C@H](NC(=O)[C@H](Cc4c[nH]c5ccccc45)NC(=O)CN)C(=O)NCC(=O)N[C@@H](CC(=O)O)C(=O)N4C[C@H](O)C[C@H]4C(=O)NCC(=O)N[C@@H](C)C(=O)N[C@@H]([C@@H](C)O)C(=O)N2)NC(=O)[C@H](CSSC[C@@H](C(=O)N[C@@H](CCCCN)C(=O)N[C@@H](CC(=O)O)C(=O)N[C@@H](CCCCN)C(=O)N[C@@H](CO)C(=O)N[C@@H](CO)C(=O)N[C@@H](C)C(=O)O)NC(=O)[C@H]([C@@H](C)O)NC(=O)[C@H](CCCCN)NC(=O)[C@H]([C@@H](C)O)NC(=O)[C@H](Cc2ccc(O)cc2)NC(=O)[C@H](CO)NC(=O)[C@H](CC(=O)O)NC3=O)NC(=O)[C@H](Cc2ccc(O)cc2)NC(=O)[C@H](CC(C)C)NC(=O)[C@H](CCCNC(=N)N)NC1=O [C.geo1[C24S]] (H-GWCGD[Hyp]GATCGKLRLYCCSGFCDSYTKTCKDKSSA-OH; disulfide 3-18, 10-22, 17-29) | 20 |  |
| CC(C)C[C@@H]1NC(=O)[C@H](CCCCN)NC(=O)CNC(=O)[C@@H]2CSSC[C@@H]3NC(=O)[C@H](Cc4ccccc4)NC(=O)CNC(=O)[C@H](CO)NC(=O)[C@H](CSSC[C@H](NC(=O)[C@H](Cc4c[nH]c5ccccc45)NC(=O)CN)C(=O)NCC(=O)N[C@@H](CC(=O)O)C(=O)N[C@@H](C)C(=O)NCC(=O)N[C@@H](C)C(=O)N[C@@H]([C@@H](C)O)C(=O)N2)NC(=O)[C@H](CSSC[C@@H](C(=O)N[C@@H](CCCCN)C(=O)N[C@@H](CC(=O)O)C(=O)N[C@@H](CCCCN)C(=O)N[C@@H](CO)C(=O)N[C@@H](CO)C(=O)N[C@@H](C)C(=O)O)NC(=O)[C@H]([C@@H](C)O)NC(=O)[C@H](CCCCN)NC(=O)[C@H]([C@@H](C)O)NC(=O)[C@H](Cc2ccc(O)cc2)NC(=O)[C@H](CSSC[C@H](NC(=O)CC[C@H](N)C(=O)O)C(=O)NCC(=O)O)NC(=O)[C@H](CC(=O)O)NC3=O)NC(=O)[C@H](Cc2ccc(O)cc2)NC(=O)[C@H](CC(C)C)NC(=O)[C@H](CCCNC(=N)N)NC1=O [C.geo1[O6A]] (H-GWCGDAGATCGKLRLYCCSGFCDC(Glutathionyl)YTKTCKDKSSA-OH; disulfide 3-18, 10-22, 17-29) | 60 |  |
| CVGRDSKCGPPPCCMGMTCNYERVRKCT [SEQ ID 025] |  | activity against rNav1.7 (rNav 1.7): not active; activity against hNav1.7 (hNaV1.7): not active |
| DWCGDAGDACGTLKLRCCSGLCNQYSGTCTG [C. geo2] |  | % block of hNaV1.7 (hNaV1.7): 69% |
| GWCGDOGATCGKLRLYCCSGFCD(Abu)YTKTCKDKS_A [C. geo1[C24Abu,des-Ser34]] |  | % block of NaV1.7 from rat (rNav 1.7): 20%; reversibility of NaV1.7 block (rNav 1.7): quickly reversible |
| I: GWCGD[Hyp]GATCGKLRLYCCSGFCDCYTKTCKDKSSA / II: GWCGD[Hyp]GATCGKLRLYCCSGFCDCYTKTCKDKSSA (disulfide I:3-I:18, I:10-I:22, I:17-I:29, I:24-II:24, II:3-II:18, II:10-II:22, II:17-II:29) [C.geo1[dimer]] |  | inhibition at 30 µM (rNav 1.7; [1]): 70% |
